In patent US20070154962A1, “Bcl-2 promoted cell death” (priority 2005, published 2007):

Assays:
Format in all cases: cell-based
PC12 cells [1] = assay: Flow cytometry of sub-G1 nuclei from PC12 cells transiently transfected with Bcl-2-GFP and exposed to H2O2; settings: treated cells compared with untreated controls; FIG. 5
Description: FIG. 5: Flow cytometry measuring apoptotic cells from PC12 cells transiently transfected with Bcl-2-GFP with and without H2O2 treatment.
An alternative explanation would be that Bcl-2 relocates to the nucleus in response to apoptosis. […] However, there was no increase in the percent of sub-G1 nuclei carrying Bcl-2-GFP in cells treated with H2O2 as compared to untreated cells. In fact, there was a paradoxical decrease, which is expected if one appreciates that the number of sub-G1 nuclei increased after H2O2 treatment without a concomitant increase of nuclear Bcl-2-GFP. Therefore, nuclear association of Bcl-2 was […] apoptosis.

[2] = test system: PC12 cells stably expressing vector or Bcl-2; assay: Cell survival (renilla luciferase) of stably transfected PC12 cells transiently transfected with BH4 peptide vector; settings: FIG. 19
Method: FIG. 19: Cell survival was measured in PC12 cells stably expressing vector or Bcl-2. These two cell lines were transiently co-transfected with luciferase and either vector, BH4 domain, or BH4Gly.
(§1) The overall rationale of the experiment was to determine if domain interference disrupted Bcl-2/FKBP38 binding, changed Bcl-2's cellular localization (i.e., result in Bcl-2 misplacement at the nucleus) and ultimately promoted Bcl-2-triggered apoptosis. […] The rationale for using a peptide larger that the BH4 domain itself was to provide structure stability to the alpha-helix of the BH4 domain (AA 11-25) through sufficient flanking regions. Cells were further co-transfected with renilla luciferase so as to determine the extent of their survival. […] It is important to note that PC12 cells expressing Bcl-2 cells diddo not depend on Bcl-2 for their survival and therefore the effect of the BH4 peptide was not due to abolishment of Bcl-2 protection. Rather, it reflected an active induction of apoptosis by Bcl-2, triggered by the BH4 peptide. The possibility that PC12 cells expressing Bcl-2 may have undergone selection during the establishment of stable transfection that could have rendered them non-specifically sensitive to the BH4 peptide was excluded.

PC12 cells [3] = assay: Cell survival of naive PC12 cells transiently co-transfected with Bcl-2 or vector and BH4 or BH4Gly; settings: transient (24 hr) transfection of the BH4 vector alone, without Bcl-2, FIG. 20
Method: FIG. 20: Cell survival was measured in PC12 cells transiently co-transfected with Bcl-2 or vector, and either vector, BH4 or BH4Gly.
as §1

[4] = test system: Human leukemia cells (HL-60); assay: Cell death as LDH release in HL-60 cells transiently transfected with BH4 peptide-expressing vector; settings: HL-60, 48 after transfection, vs. Flag or BH4Gly; FIG. 24
Method: The extent of cell death was assessed 48 after transfection as release of LDH in the cell culture medium.
The extent of cell death was assessed 48 after transfection as release of LDH in the cell culture medium. Statistical difference was vs. Flag or BH4Gly (Two-tailed Student “t” test; N=4-7 independent measurements per group).

Row | Compound | sub-G1 (apoptotic) nuclei (PC12 cells [1]) | induction of apoptosis / survival ([2]; PC12 cells not expressing Bcl-2 (empty vector pmKitNeo)) | survival of cells (renilla luciferase) ([2]; PC12 cells stably expressing Bcl-2, compared with BH4-transfected cells stably expressing empty pmKitNeo) | cell survival (PC12 cells [3]) | cell death (release of LDH in the cell culture medium) [4]
1 | OO [H2O2] | substantial increase |  |  |  | 
2 | BH4 peptide: vector-expressed peptide identical to the N-terminal 30 amino acids of Bcl-2, including the 11-25 BH4 domain (MAHAGRTGYDNREIVMKYIHYKLSQRGYEW; UniProt P10415 1-30, looked up, fragment) |  | unaffected | significantly lower | did not affect cell survival | effective in inducing cell death
